The test system of series [1] is MAP3K2/MAP3K3. The following applies: p47phox substrate; cited from earlier work.
Series [2] has as its system acute lung injury (ALI). Particulars: cited from earlier work.
For series [3] the following is noted: in vivo; cited from earlier work.
Series [4] relates to acute lung injury (ALI). Put plainly: mouse ALI/ARDS models (acid-induced direct insult, LPS-induced indirect insult). The format is in vivo. Particulars: dependent on MAP3K2/3 and ROS production.
The test system of the next series is neutrophils. Particulars: cited from earlier work.
The conditions of series [5]: cited from earlier work.
The test system of series [6] is coronavirus (Murine Hepatitis Virus Strain 1, MHV-1) induced mouse lung injury model. Put plainly: pulmonary permeability (FITC-albumin in BAL) in mouse coronavirus induced acute lung injury model.
Series [7] shares this test system. Put plainly: survival and body weight loss in mouse coronavirus induced acute lung injury model. Particulars: 3 mg/kgbw retro-orbital once daily for 5 days since 24 hr after virus inoculation.
For series [8], the system named is MAP3K2/MAP3K3. Briefly: MAP3K2/MAP3K3-mediated phosphorylation of p47phox. It counts as biochemical.
Series [9] relates to MAP3K2/MAP3K3. Particulars: MEK5 substrate; cited from earlier work.
The next series has as its system patients. The following applies: cited from earlier work.

A value given as a limit tells only on which side of the number the result lay.

For the compound `Cc1ccc(NC(=O)c2ccc(CN3CCN(C)CC3)cc2)cc1Nc1nccc(-c2cccnc2)n1` [imatinib], in the series with MAP3K2/MAP3K3 [1], the “inhibition of MAP3K2/MAP3K3-mediated phosphorylation of p47phox” value is given as “do not inhibit”.
Turning to `COC(=O)c1ccc2c(c1)NC(=O)/C2=C(\Nc1ccc(N(C)C(=O)CN2CCN(C)CC2)cc1)c1ccccc1` [nintedanib, Methyl (3Z)-3-{[(4-{methyl[(4-methylpiperazin-1-yl)acetyl]amino}phenyl)amino](phenyl)methylidene}-2-oxo-2,3-dihydro-1H-indole-6-carboxylate], the “inhibition of MAP3K2/MAP3K3-mediated phosphorylation of p47phox” value in the series on MAP3K2/MAP3K3 [1] is “also inhibits”. In the series on acute lung injury (ALI) [2], the “reduction of ALI in mouse models” value is given as “has been shown to reduce ALI”.
Take “5-({4-[(2,3-Dimethyl-2H-indazol-6-yl)methylamino]pyrimidin-2-yl}amino)-2-methylbenzenesulfonamide [pazopanib]”: the bioavailability in [3] was 14-21%. Further, the half-life in series [3] is 30.9 to 31.9 h. The “ameliorating ALI in the two mouse ALI/ARDS models” value with acute lung injury (ALI) [4] is “effective in ameliorating ALI”. Further, the ROS levels entry with neutrophils is on record as “elevates ROS levels”. Further, in series [5], the protein binding is more than 99.5%. Moreover, the “inhibition of MAP3K2/MAP3K3-mediated phosphorylation of p47phox” value with MAP3K2/MAP3K3 [1] is reported as “low nM levels”. Also, the pulmonary permeability result is “significantly reduce” in series [6] (2 doses at 3 mg/kgbw retro-orbital, 24 and 33 h after 6000 PFU MHV-1, FIG. 2); “significantly reduce” in series [6] (3 doses at 3 mg/kgbw retro-orbital, 6, 21 and 32 h after 5000 PFU MHV-1, FIG. 1); “significantly reduce” in series [6] (one dose 3 mg/kgbw retro-orbital at 24 hr after virus inoculation, FIG. 3); “significantly reduce” in [6] (one dose 3 mg/kgbw retro-orbital at 48 hr after virus inoculation, FIG. 4); “negligible effect” in series [6] (one dose 3 mg/kgbw retro-orbital at 72 hr after virus inoculation, FIG. 5). In addition, the survival rate entry in series [7] (FIG. 6) is given as “does not affect”. For the same compound, the body weight loss result in series [7] (FIG. 7) is recorded as “does not affect”. Besides, in the series on MAP3K2/MAP3K3 [8], the “affinity as p47phox substrate-specific inhibitor for MAP3K2 and 3” value was “low nanomolar”. For the same compound, in the series on MAP3K2/MAP3K3 [9], the “inhibition of other substrates of MAP3K2/MAP3K3 such as MEK5” value is “μM levels”. Also, the “ILD/pneumonitis reported in patients in the clinical trials” value with patients (clinical trials) was 0.1 % of patients. Also, the “patients who developed a pneumothorax” value in the series on patients (randomized RCC trial) was “[t]wo of 290”. Further, the pneumothorax occurrence in the series on patients (randomized STS trial (8/240)) is 3%.

What is called half-life is how long it takes for the measured level to halve.

The values above are taken from US11497747B2, “Compositions and methods for treating lung injuries associated with SARS-CoV-2 infections” (priority 2020, dated 2022).
